Values quoted from earlier work, collected in PMC3639963, “A New Class of Small Molecule Inhibitor of BMP Signaling” (PLoS ONE, 2013).

Columns and labels:
[1] = system: C2C12 cells; settings: cited from earlier work
[2] = system: ALK2; parameters: method as in PMID 19914855; settings: read-out: reported in vitro IC50 (enzymatic assays); cited from earlier work

## c1cc(-c2cnn3cc(-c4ccc(OCCN5CCCCC5)cc4)cnc23)ccn1 [Dorsomorphin]
[1]
  IC50: ~500 nM
[2]
  IC50: 50 nM
